Results on three compounds are retold here after patent US6710190B1, “3-heteroarylalkyl substituted gaba analogs” (Warner-Lambert Company, priority 1999, dated 2004).

Where two headings read alike, the source gives them in different places.

Experiment [1] deals with carrageenan-induced thermal hyperalgesia in the rat. The experiment is described as follows: Pain model: carrageenan-induced thermal hyperalgesia in the rat (plantar test). Format: in vivo. The following applies: for Pain Model % MPE 1 h: 1 h after oral administration; for Pain Model % MPE 2h: 2 h after oral administration. The procedure:
Male Sprague-Dawley rats (180-250 g) were obtained from Bantin and Kingman, (Hull, U.K.). Animals were housed in groups of 6 to 10 under a 12 hour light/dark cycle (lights on at 7 hours, 0 minutes) with food and water ad libitum.
Thermal hyperalgesia was assessed using the rat plantar test (Ugo Basile, Italy) following a modified method of Hargreaves, et al., 1988. Rats were habituated to the apparatus which consisted of three individual perspex boxes on an elevated glass table. A mobile radiant heat source located under the table was focused onto the desired paw and paw withdrawal latencies (PWL) recorded. PWL were taken 3 times for both hind paws of each animal, the mean of which represented baselines for right and left hind paws. At least 5 minutes were allowed between each PWL for an animal. The apparatus was calibrated to give a PWL of approximately 10 seconds. There was an automatic cutoff point of 20 seconds to prevent tissue damage. After baseline PWLs were determined, animals received an intraplantar injection of carrageenan (100 μL of 20 mg/mL) into the right hind paw. PWLs were reassessed following the same protocol as above 2-hour post-carrageenan (this time point represented the start of peak hyperalgesia) to ascertain that hyperalgesia had developed. Test compounds were administered orally (in a volume of 1 mL/kg) at 2.5 hours after carrageenan. PWLs were reassessed at various times after drug administration.

For experiment [2], the target named is T1, α2δ subunit derived from porcine brain tissue (Sus scrofa, UniProt A0A287BIN3).
T1 construct: the α2δ subunit derived from porcine brain tissue was used; from tissue; host or cells: porcine brain tissue
The experiment is described as follows: [3H]gabapentin radioligand binding assay (α2δ assay).

For experiment [3], the system named is sound-induced tonic seizures in DBA/2 mice. The experiment is described as follows: DBA2 mouse model: prevention of audiogenic seizures in DBA/2 mice. The format is in vivo. Also noted: concentration or dose not given beside the values. The following applies: for DBA2 Mouse Model % Protect (1h): 1h after oral dosing; for DBA2 Mouse Model % Protect (2h): 2h after oral dosing. As for the experimental part:
All procedures were carried out in compliance with the NIH Guide for the Care and Use of Laboratory Animals under a protocol approved by the Parke-Davis Animal Use Committee. Male DBA/2 mice, 3 to 4 weeks old, were obtained from Jackson Laboratories, Bar Harbour, Me. Immediately before anticonvulsant testing, mice were placed upon a wire mesh, 4 inches square suspended from a steel rod. The square was slowly inverted through 180 degrees and mice observed for 30 seconds. Any mouse falling from the wire mesh was scored as ataxic.
Mice were placed into an enclosed acrylic plastic chamber (21 cm height, approximately 30 cm diameter) with a high-frequency speaker (4 cm diameter) in the center of the top lid. An audio signal generator (Protek model B-180) was used to produce a continuous sinusoidal tone that was swept linearly in frequency between 8 kHz and 16 kHz once each 10 msec. The average sound pressure level (SPL) during stimulation was approximately 100 dB at the floor of the chamber. Mice were placed within the chamber and allowed to acclimatize for 1 minute. DBA/2 mice in the vehicle-treated group responded to the sound stimulus (applied until tonic extension occurred, or for a maximum of 60 seconds) with a characteristic seizure sequence consisting of wild running followed by clonic seizures, and later by tonic extension, and finally by respiratory arrest and death in 80% or more of the mice. In vehicle-treated mice, the entire sequence of seizures to respiratory arrest lasts approximately 15 to 20 seconds.
The incidence of all the seizure phases in the drug-treated and vehicle-treated mice was recorded, and the occurrence of tonic seizures were used for calculating anticonvulsant ED50 values by probit analysis. Mice were used only once for testing at each dose point. […] All drugs in the present study were dissolved in distilled water and given by oral gavage in a volume of 10 mL/kg of body weight. compounds that are insoluble will be suspended in 1% carboxymethocellulose. Doses are expressed as weight of the active drug moiety.

T1 sequence (A0A287BIN3 25-1109): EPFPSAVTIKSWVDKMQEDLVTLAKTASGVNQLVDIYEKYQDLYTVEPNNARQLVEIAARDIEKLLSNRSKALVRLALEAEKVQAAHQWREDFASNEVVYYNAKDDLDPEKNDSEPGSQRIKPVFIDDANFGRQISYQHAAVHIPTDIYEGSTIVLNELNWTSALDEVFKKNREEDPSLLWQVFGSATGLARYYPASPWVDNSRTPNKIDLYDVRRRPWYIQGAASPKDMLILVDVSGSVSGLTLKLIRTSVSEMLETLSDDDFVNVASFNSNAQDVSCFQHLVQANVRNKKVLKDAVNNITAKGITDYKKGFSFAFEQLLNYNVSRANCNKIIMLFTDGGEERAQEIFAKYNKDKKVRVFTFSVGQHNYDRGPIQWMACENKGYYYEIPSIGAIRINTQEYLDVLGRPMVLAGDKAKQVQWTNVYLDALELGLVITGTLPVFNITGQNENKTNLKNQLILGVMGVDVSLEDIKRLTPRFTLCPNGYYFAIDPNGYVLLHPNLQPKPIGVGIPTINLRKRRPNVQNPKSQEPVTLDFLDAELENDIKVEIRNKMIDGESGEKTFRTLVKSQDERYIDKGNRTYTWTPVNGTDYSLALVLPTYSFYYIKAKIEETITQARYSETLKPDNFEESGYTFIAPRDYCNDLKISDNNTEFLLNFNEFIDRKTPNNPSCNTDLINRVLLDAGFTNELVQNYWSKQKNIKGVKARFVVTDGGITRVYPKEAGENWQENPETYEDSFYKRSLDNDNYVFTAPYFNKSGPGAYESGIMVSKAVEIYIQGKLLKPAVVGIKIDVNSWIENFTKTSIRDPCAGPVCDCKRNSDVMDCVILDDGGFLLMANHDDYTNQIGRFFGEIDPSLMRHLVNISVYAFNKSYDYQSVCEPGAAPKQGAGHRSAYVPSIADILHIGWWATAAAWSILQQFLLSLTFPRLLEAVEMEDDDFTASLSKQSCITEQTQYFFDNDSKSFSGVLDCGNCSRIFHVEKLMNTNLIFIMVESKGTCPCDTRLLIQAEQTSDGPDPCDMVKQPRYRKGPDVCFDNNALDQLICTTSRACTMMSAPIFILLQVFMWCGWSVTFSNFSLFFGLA

As for `NCC(CC(=O)O)Cc1ccco1` (stereo not shown), in experiment [1], the “Pain Model % MPE 1 h” value was 61.6% and the “Pain Model % MPE 2h” value came to 24.9%. The compound also showed a 50% inhibitory concentration (IC50) in experiment [2] of 421 nM. Moreover, in experiment [3], the “DBA2 Mouse Model % Protect (1h)” value stood at 0% and the “DBA2 Mouse Model % Protect (2h)” value came to 20%.
In the case of `NCC(CC(=O)O)Cc1cccs1` (stereo not shown), in experiment [1], the “Pain Model % MPE 1 h” value was 31.9% and the “Pain Model % MPE 2h” value worked out at 18.1%. Besides, in experiment [2] (read-out: α2δ Assay IC50), the IC50 turned out to be 2670 nM. Besides, in experiment [3], the “DBA2 Mouse Model % Protect (1h)” value was 20% and the “DBA2 Mouse Model % Protect (2h)” value is reported as 40%.
As for `NCC(CC(=O)O)Cc1ccsc1` (stereo not shown), in experiment [2] (read-out: α2δ Assay IC50), the IC50 came to 831 nM. In addition, in experiment [3], the “DBA2 Mouse Model % Protect (1h)” value is on record as 40% and the “DBA2 Mouse Model % Protect (2h)” value is recorded as 60%.
